Tests used:
human orexin-2 receptor [1] = biological target: T1, human orexin-2 receptor (Homo sapiens (Human), UniProt O43614); experiment: radioligand binding assay, orexin-2 receptor (membranes from CHO cells); settings: CHO cell membranes, read-out: hOX2 hKi
Procedure: (§1) The utility of the compounds in accordance with the present invention as orexin receptor OX1R and/or OX2R antagonists may be readily determined without undue experimentation by methodology well known in the art, including the “FLIPR Ca^2+ Flux Assay” (Okumura et al., Biochem. Biophys. Res. Comm. 280:976-981, 2001). In a typical experiment the OX1 and OX2 receptor antagonistic activity of the compounds of the present invention was determined in accordance with the following experimental method. For intracellular calcium measurements, Chinese hamster ovary (CHO) cells expressing the rat orexin-1 receptor or the human orexin-2 receptor, are grown in Iscove's modified DMEM containing 2 mM L-glutamine, […], 1% hypoxanthine-thymidine supplement, 100 U/ml penicillin, 100 ug/ml streptomycin and 10% heat-inactivated fetal calf serum (FCS). The cells are seeded at 20,000 cells/well into Becton-Dickinson black 384-well clear bottom sterile plates coated with poly-D-lysine. All reagents were from GIBCO-Invitrogen Corp. The seeded plates are incubated overnight at 37° C. and 5% CO2. Ala-6,12 human orexin-A as the agonist is prepared as a 1 mM stock solution in 1% bovine serum albumin (BSA) and diluted in assay buffer (HBSS containing 20 mM HEPES, 0.1% BSA and 2.5 mM probenecid, pH7.4) for use in the assay at a final concentration of 70 pM. Test compounds are prepared as 10 mM stock solution in DMSO, then diluted in 384-well plates, first in DMSO, then assay buffer. On the day of the assay, cells are washed 3 times with 100 ul assay buffer and then incubated for 60 min (37° C., 5% CO2) in 60 ul assay buffer containing 1 uM Fluo-4AM ester, 0.02% pluronic acid, and 1% BSA. The dye loading solution is then aspirated and cells are washed 3 times with 100 ul assay buffer. 30 ul of that same buffer is left in each well. Within the Fluorescent Imaging Plate Reader (FLIPR, Molecular Devices), test compounds are added to the plate in a volume of 25 ul, incubated for 5 min and finally 25 ul of agonist is added. Fluorescence is measured for each well at 1 second intervals for 5 minutes and the height of each fluorescence peak is compared to the height of the fluorescence peak induced by 70 pM Ala-6,12 orexin-A with buffer in place of antagonist. […] Alternatively, compound potency can be assessed by a radioligand binding assay (described in Bergman et. al. Bioorg. Med. Chem. Lett. 2008, 18, 1425-1430) in which the inhibition constant (Ki) is determined in membranes prepared from CHO cells expressing either the OX1 or OX2 receptor. The intrinsic orexin receptor antagonist activity of a compound which may be used in the present invention may be determined by these assays.

OX1 receptor (hOX1) = OX1 receptor (hOX1) (Homo sapiens, UniProt O43613); experiment: radioligand binding assay, orexin-1 receptor (membranes from CHO cells); settings: CHO cell membranes, read-out: hOX1 hKi
Procedure: In a typical experiment the OX1 and OX2 receptor antagonistic activity of the compounds of the present invention was determined in accordance with the following experimental method. For intracellular calcium measurements, Chinese hamster ovary (CHO) cells expressing the rat orexin-1 receptor or the human orexin-2 receptor, are grown in Iscove's modified DMEM containing 2 mM L-glutamine, […], 1% hypoxanthine-thymidine supplement, 100 U/ml penicillin, 100 ug/ml streptomycin and 10% heat-inactivated fetal calf serum (FCS). The cells are seeded at 20,000 cells/well into Becton-Dickinson black 384-well clear bottom sterile plates coated with poly-D-lysine. All reagents were from GIBCO-Invitrogen Corp. The seeded plates are incubated overnight at 37° C. and 5% CO2. Ala-6,12 human orexin-A as the agonist is prepared as a 1 mM stock solution in 1% bovine serum albumin (BSA) and diluted in assay buffer (HBSS containing 20 mM HEPES, 0.1% BSA and 2.5 mM probenecid, pH7.4) for use in the assay at a final concentration of 70 pM. Test compounds are prepared as 10 mM stock solution in DMSO, then diluted in 384-well plates, first in DMSO, then assay buffer. On the day of the assay, cells are washed 3 times with 100 ul assay buffer and then incubated for 60 min (37° C., 5% CO2) in 60 ul assay buffer containing 1 uM Fluo-4AM ester, 0.02% pluronic acid, and 1% BSA. The dye loading solution is then aspirated and cells are washed 3 times with 100 ul assay buffer. 30 ul of that same buffer is left in each well. Within the Fluorescent Imaging Plate Reader (FLIPR, Molecular Devices), test compounds are added to the plate in a volume of 25 ul, incubated for 5 min and finally 25 ul of agonist is added. Fluorescence is measured for each well at 1 second intervals for 5 minutes and the height of each fluorescence peak is compared to the height of the fluorescence peak induced by 70 pM Ala-6,12 orexin-A with buffer in place of antagonist. […] Alternatively, compound potency can be assessed by a radioligand binding assay (described in Bergman et. al. Bioorg. Med. Chem. Lett. 2008, 18, 1425-1430) in which the inhibition constant (Ki) is determined in membranes prepared from CHO cells expressing either the OX1 or OX2 receptor. The intrinsic orexin receptor antagonist activity of a compound which may be used in the present invention may be determined by these assays.

human orexin-2 receptor [2] = biological target: T1, human orexin-2 receptor; experiment: FLIPR Ca2+ Flux Assay, CHO cells expressing human orexin-2 receptor; format: cell-based; settings: 70 pM Ala-6,12 orexin-A agonist, read-out: hOX2R FLIPR IC50
Procedure: as §1

rat orexin-1 receptor = rat orexin-1 receptor (Rattus norvegicus (Rat), UniProt P56718); experiment: FLIPR Ca2+ Flux Assay, CHO cells expressing rat orexin-1 receptor; format: cell-based; settings: 70 pM Ala-6,12 orexin-A agonist, read-out: hOX1R FLIPR IC50;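 also: concentration giving 50% inhibition of the agonist-induced calcium response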
Procedure: as §1

Sequence of rat orexin-1 receptor (P56718 whole entry): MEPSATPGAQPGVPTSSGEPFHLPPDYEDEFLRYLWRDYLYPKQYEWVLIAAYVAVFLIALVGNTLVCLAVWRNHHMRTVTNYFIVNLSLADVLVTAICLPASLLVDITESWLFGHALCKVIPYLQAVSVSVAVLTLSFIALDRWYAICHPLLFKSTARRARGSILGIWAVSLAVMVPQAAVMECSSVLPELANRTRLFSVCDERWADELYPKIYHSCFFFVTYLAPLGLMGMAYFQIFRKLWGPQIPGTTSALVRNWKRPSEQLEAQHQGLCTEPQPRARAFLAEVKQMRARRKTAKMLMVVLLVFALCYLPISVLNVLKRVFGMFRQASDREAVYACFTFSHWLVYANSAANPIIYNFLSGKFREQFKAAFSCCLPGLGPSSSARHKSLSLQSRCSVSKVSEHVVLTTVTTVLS
T1 sequence (O43614 whole entry): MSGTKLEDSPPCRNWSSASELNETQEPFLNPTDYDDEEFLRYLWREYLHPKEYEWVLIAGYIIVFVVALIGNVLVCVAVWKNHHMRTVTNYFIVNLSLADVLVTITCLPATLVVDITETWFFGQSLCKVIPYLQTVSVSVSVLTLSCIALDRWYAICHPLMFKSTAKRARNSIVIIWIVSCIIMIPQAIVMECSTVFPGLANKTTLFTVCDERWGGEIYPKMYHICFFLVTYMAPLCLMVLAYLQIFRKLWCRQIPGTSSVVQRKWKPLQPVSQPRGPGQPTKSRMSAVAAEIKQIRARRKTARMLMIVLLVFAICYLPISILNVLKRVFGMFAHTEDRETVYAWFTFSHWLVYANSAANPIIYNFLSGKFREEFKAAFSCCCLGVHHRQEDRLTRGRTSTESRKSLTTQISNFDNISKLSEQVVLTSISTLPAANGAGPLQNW

## C[C@@H]1CC[C@@H](Oc2cc(C#N)ccn2)CN1C(=O)c1ccc(F)cc1-n1nccn1 [Example 8, 2-{[(3R,6R)-1-{[4-fluoro-2-(2H-1,2,3-triazol-2-yl)phenyl]carbonyl}-6-methylpiperidin-3-yl]oxy}pyridine-4-carbonitrile]
Human orexin-2 receptor [1]
  Ki: 3.5 nM
OX1 receptor (hOX1)
  Ki: 2910 nM
Human orexin-2 receptor [2]
  IC50: 29 nM
Rat orexin-1 receptor
  IC50: > 10000 nM

## Cc1ccc(C(=O)N2C[C@H](Oc3cc(C#N)ccn3)CC[C@H]2C)c(-n2nccn2)c1 [Example 9, 2-{[(3R,6R)-6-methyl-1-{[4-methyl-2-(2H-1,2,3-triazol-2-yl)phenyl]carbonyl}piperidin-3-yl]oxy}pyridine-4-carbonitrile]
Human orexin-2 receptor [1]
  Ki: 3.7 nM
OX1 receptor (hOX1)
  Ki: 1250 nM
Human orexin-2 receptor [2]
  IC50: 22 nM
Rat orexin-1 receptor
  IC50: 7150 nM

## C[C@@H]1CC[C@@H](Oc2cc(C#N)ccn2)CN1C(=O)c1ccsc1-n1nccn1 [Example 10, 2-{[(3R,6R)-6-methyl-1-{[2-(2H-1,2,3-triazol-2-yl)thiophen-3-yl]carbonyl}piperidin-3-yl]oxy}pyridine-4-carbonitrile]
Human orexin-2 receptor [1]
  Ki: 5.9 nM
OX1 receptor (hOX1)
  Ki: 3570 nM
Human orexin-2 receptor [2]
  IC50: 29 nM
Rat orexin-1 receptor
  IC50: > 10000 nM

## C[C@@H]1CC[C@@H](Oc2cc(C#N)ccn2)CN1C(=O)c1sccc1-n1nccn1 [Example 14, 2-{[(3R,6R)-6-methyl-1-{[3-(2H-1,2,3-triazol-2-yl)thiophen-2-yl]carbonyl}piperidin-3-yl]oxy}pyridine-4-carbonitrile]
Human orexin-2 receptor [1]
  Ki: 15 nM
OX1 receptor (hOX1)
  Ki: 5340 nM
Human orexin-2 receptor [2]
  IC50: 65 nM
Rat orexin-1 receptor
  IC50: > 10000 nM

## C[C@@H]1CC[C@@H](Oc2cc(C#N)ccn2)CN1C(=O)c1cc(Br)ccc1-n1nccn1 [Example 15, 2-{[(3R,6R)-1-{[5-bromo-2-(2H-1,2,3-triazol-2-yl)phenyl]carbonyl}-6-methylpiperidin-3-yl]oxy}pyridine-4-carbonitrile]
Human orexin-2 receptor [1]
  Ki: 9.1 nM
OX1 receptor (hOX1)
  Ki: 265 nM
Human orexin-2 receptor [2]
  IC50: 62 nM
Rat orexin-1 receptor
  IC50: 1040 nM

## COc1ccc(C(=O)N2C[C@H](Oc3cc(C#N)ccn3)CC[C@H]2C)c(-n2nccn2)n1 [Example 17, 2-{[(3R,6R)-1-{[6-methoxy-2-(2H-1,2,3-triazol-2-yl)pyridin-3-yl]carbonyl}-6-methylpiperidin-3-yl]oxy}pyridine-4-carbonitrile]
Human orexin-2 receptor [1]
  Ki: 15 nM
OX1 receptor (hOX1)
  Ki: 5640 nM
Human orexin-2 receptor [2]
  IC50: 82 nM
Rat orexin-1 receptor
  IC50: > 10000 nM

## COc1ccc(C(=O)N2C[C@H](Oc3cc(C#N)ccn3)CC[C@H]2C)c(C2CC2)n1 [Example 20, 2-({(3R,6R)-1-[(2-cyclopropyl-6-methoxypyridin-3-yl)carbonyl]-6-methylpiperidin-3-yl}oxy)pyridine-4-carbonitrile]
Human orexin-2 receptor [1]
  Ki: 11.5 nM
OX1 receptor (hOX1)
  Ki: 12600 nM
Human orexin-2 receptor [2]
  IC50: 67 nM
Rat orexin-1 receptor
  IC50: > 10000 nM

## C[C@@H]1CC[C@@H](Oc2cc(C#N)ccn2)CN1C(=O)c1c(F)cccc1-n1nccn1 [Example 22, 2-{[(3R,6R)-1-{[2-fluoro-6-(2H-1,2,3-triazol-2-yl)phenyl]carbonyl}-6-methylpipeidin-3-yl]oxy}pyridine-4-carbonitrile]
Human orexin-2 receptor [1]
  Ki: 3.4 nM
OX1 receptor (hOX1)
  Ki: 1790 nM
Human orexin-2 receptor [2]
  IC50: 23 nM
Rat orexin-1 receptor
  IC50: 5750 nM

## C[C@@H]1CC[C@@H](Oc2cc(C#N)ccn2)CN1C(=O)c1ccc(Cl)cc1-n1nccn1 [Example 29, 2-{[(3R,6R)-1-{[4-chloro-2-(2H-1,2,3-triazol-2-yl)phenyl]carbonyl}-6-methylpiperidin-3-yl]oxy}pyridine-4-carbonitrile]
Human orexin-2 receptor [1]
  Ki: 1.3 nM
OX1 receptor (hOX1)
  Ki: 1100 nM
Human orexin-2 receptor [2]
  IC50: 12 nM
Rat orexin-1 receptor
  IC50: 3400 nM

## C[C@@H]1CC[C@@H](Oc2cc(C#N)ccn2)CN1C(=O)c1sccc1-c1ncccn1 [Example 31]
Human orexin-2 receptor [1]
  Ki: 5.9 nM
OX1 receptor (hOX1)
  Ki: 2720 nM
Human orexin-2 receptor [2]
  IC50: 38 nM
Rat orexin-1 receptor
  IC50: > 10000 nM

## C[C@@H]1CC[C@@H](Oc2cc(C#N)ccn2)CN1C(=O)c1cccc(F)c1-c1ncccn1 [Example 33, 2-({(3R,6R)-1-[(3-fluoro-2-pyrimidin-2-ylphenyl)carbonyl]-6-methylpiperidin-3-yl}oxy)pyridine-4-carbonitrile]
Human orexin-2 receptor [1]
  Ki: 12.4 nM
OX1 receptor (hOX1)
  Ki: 1690 nM
Human orexin-2 receptor [2]
  IC50: 52 nM
Rat orexin-1 receptor
  IC50: > 10000 nM

## C[C@@H]1CC[C@@H](Oc2cc(C#N)ccn2)CN1C(=O)c1ccc(F)cc1-c1ncccn1 [Example 34, 2-({(3R,6R)-1-[(4-fluoro-2-pyrimidin-2-ylphenyl)carbonyl]-6-methylpiperidin-3-yl}oxy)pyridine-4-carbonitrile]
Human orexin-2 receptor [1]
  Ki: 3.5 nM
OX1 receptor (hOX1)
  Ki: 868 nM
Human orexin-2 receptor [2]
  IC50: 48 nM
Rat orexin-1 receptor
  IC50: > 10000 nM

## C[C@@H]1CC[C@@H](Oc2cc(C#N)ccn2)CN1C(=O)c1cc(F)ccc1-c1ncccn1 [Example 35, 2-({(3R,6R)-1-[(5-fluoro-2-pyrimidin-2-ylphenyl)carbonyl]-6-methylpiperidin-3-yl}oxy)pyridine-4-carbonitrile]
Human orexin-2 receptor [1]
  Ki: 1 nM
OX1 receptor (hOX1)
  Ki: 658 nM
Human orexin-2 receptor [2]
  IC50: 31 nM
Rat orexin-1 receptor
  IC50: 8040 nM

## C[C@@H]1CC[C@@H](Oc2cc(C#N)ccn2)CN1C(=O)c1c(F)cccc1-c1ncccn1 [Example 36, 2-({(3R,6R)-1-[(2-fluoro-6-pyimidin-2-ylphenyl)carbonl]-6-methylpiperidin-3-yl}oxy)pyridine-4-carbonitrile]
Human orexin-2 receptor [1]
  Ki: 2.1 nM
OX1 receptor (hOX1)
  Ki: 930 nM
Human orexin-2 receptor [2]
  IC50: 47 nM
Rat orexin-1 receptor
  IC50: > 10000 nM

— patent US20130102619A1, “2-PYRIDYLOXY-4-NITRILE OREXIN RECEPTOR ANTAGONISTS” (priority 2011, published 2013)
